Measured values from PMC8151276, “An Integrated Approach toward NanoBRET Tracers for Analysis of GPCR Ligand Engagement” (Molecules, 2021).

Legend:
[1] = target: T1, CCR10 (Homo sapiens, UniProt P46092); assay: NanoBRET screen HiBiT-CCR10 in HEK293; type: binding
T1 construct: purchased Promega (in-house HiBiT-GPCR construct library, NanoBRET)
T1 sequence (P46092 1-362): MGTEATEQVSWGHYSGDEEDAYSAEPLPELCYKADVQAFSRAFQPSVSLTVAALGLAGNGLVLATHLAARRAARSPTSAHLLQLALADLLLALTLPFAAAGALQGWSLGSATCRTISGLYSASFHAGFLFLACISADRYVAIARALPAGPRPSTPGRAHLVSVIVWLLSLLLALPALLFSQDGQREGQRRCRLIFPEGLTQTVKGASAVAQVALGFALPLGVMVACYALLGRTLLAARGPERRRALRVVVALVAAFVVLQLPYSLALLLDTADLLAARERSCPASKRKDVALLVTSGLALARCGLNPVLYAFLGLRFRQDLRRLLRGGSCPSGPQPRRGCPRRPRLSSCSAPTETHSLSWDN
Experimental: (§1) Each tracer candidate was screened across the entire library of HiBiT-GPCR constructs using NanoBRET as the detection modality. As depicted in Figure 4A, the specificity of interactions was evaluated through decrease in BRET due to competitive displacement of a bound tracer by excess parental compound. Each tracer was analyzed for binding to each HiBiT-GPCR fusion in the absence and in the presence of competing parental compound. Briefly, HEK293 cells were transfected with HiBiT-GPCR constructs diluted into promoterless DNA to reduce expression and maximize translocation to the cell surface. Each tracer candidate was then screened at concentrations of 1 μM and 0.1 μM across cells expressing these fusions. Cells were treated for 1.5 h with tracer either alone or in the presence of 20 μM competing parental compound (i.e., control). BRET was measured upon addition of purified LgBiT and subsequent complementation with HiBiT genetically fused to a GPCR. The specificity of interactions was assessed through a decrease in BRET signal due to competitive displacement of the bound tracer. To further gauge the robustness of these interactions, the fold response over the control (i.e., BRETtracer/BRETcontrol) was calculated. We chose a 1.5-fold response, which translates to ≥7-fold signal over noise as the minimal threshold required to score an interaction as positive.
(§2) HiBiT-GPCR DNA constructs were diluted in 10 mM Tris pH 8 to a final concentration of 0.01 μg/μL, arrayed in 96-well plates and stored at −20 °C. For transfection, HEK293 cells were suspended in Opti-MEM (without phenol red) supplemented with 2% fetal bovine serum (Seradigm) and 100 units/mL penicillin–streptomycin (Gibco) at a final concentration of 220,000 cells/mL and dispensed into white 96-well plates at 90 μL/well. Subsequent transfections and screens were carried using an Agilent Bravo Automated Liquid Handling Platform. First, the 96-well HiBiT DNA arrays were diluted 25-fold in Opti-MEM (without serum or phenol red) to a final concentration of 0.0004 μg/μL and 20 μL of the diluted DNAs were transferred into new 96-well plates. Next, promoterless carrier DNA (1 μg/μL) was diluted 25-fold (0.04 μg/μL) and then dispensed into the diluted arrays at 20 μL/well. Following brief mixing, Viafect transfection reagent (Promega) diluted 16-fold into Opti-MEM was dispensed into the plates at 40 μL/well. After mixing by pipetting, plates were incubated for 10 min on the pipetting station deck. The DNA-transfection reagent complexes were then added to plates containing cells. To facilitate the screen, 10 μL of DNA-transfection reagent complexes were added in duplicates to the top 4 and bottom 4 rows, resulting in two identical 48-well arrays per plate. Plates with transfected cells were incubated for 18–20 h at 37 °C/5% CO2. A screen of each tracer across the entire library using two different concentrations requires duplicate plates of transfected cells. Depending on the number of tracers being screened, transfections can be scaled up using the same ratios. The next day, for each tracer, four 20× screening solutions in tracer dilution buffer (Promega) were prepared: two duplicates at final concentration of 20 μM and two duplicates at a final concentration of 2 μM. […] The four resulting solutions were diluted 4-fold in Opti-MEM without serum or phenol red to generate 5× solutions (5 µM and 0.5 µM tracer +/− 100 μM competing compound). To screen the library, a BioTek MultiFlo FX liquid dispenser was used to dispense 22.5 µL of tracer solution to the top 4 rows and 22.5 µL tracer + competing compound solution to the 4 bottom rows. Plates were briefly mixed on an orbital shaker and incubated for 1.5 h at room temperature. […] Plates were briefly mixed on an orbital shaker and incubated for 15 min to allow complementation.

[2] = target: T2, CHRM5 (Homo sapiens, UniProt P08912); assay: NanoBRET screen HiBiT-CHRM5 in HEK293; type: binding
T2 construct: purchased Promega (in-house HiBiT-GPCR construct library, NanoBRET)
T2 sequence (P08912 1-532): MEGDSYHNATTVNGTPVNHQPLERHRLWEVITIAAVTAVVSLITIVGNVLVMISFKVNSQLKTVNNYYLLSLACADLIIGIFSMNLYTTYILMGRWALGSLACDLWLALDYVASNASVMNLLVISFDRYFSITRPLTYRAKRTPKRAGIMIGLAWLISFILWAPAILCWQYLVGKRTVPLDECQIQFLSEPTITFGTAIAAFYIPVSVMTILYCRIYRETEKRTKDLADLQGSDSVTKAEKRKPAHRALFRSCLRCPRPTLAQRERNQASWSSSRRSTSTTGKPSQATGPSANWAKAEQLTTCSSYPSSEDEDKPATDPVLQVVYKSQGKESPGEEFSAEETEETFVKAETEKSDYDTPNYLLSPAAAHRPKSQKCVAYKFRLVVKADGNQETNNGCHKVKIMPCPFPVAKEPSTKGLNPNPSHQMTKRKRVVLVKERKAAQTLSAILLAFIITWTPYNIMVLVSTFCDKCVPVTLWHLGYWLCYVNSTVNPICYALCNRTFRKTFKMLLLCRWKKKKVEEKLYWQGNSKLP
Experimental: as §1, §2

| SMILES | NanoBRET Fold Response ([1]; CCR10, tracer 0.1μM) | NanoBRET Fold Response ([1]; CCR10, tracer 1μM) | NanoBRET Fold Response ([2]; CHRM5, tracer 0.1μM) | NanoBRET Fold Response ([2]; CHRM5, tracer 1μM) | further results |
| --- | --- | --- | --- | --- | --- |
| O=C(CCc1ccc2n1[B-](F)(F)[N+]1=C(c3ccc[nH]3)C=CC1=C2)NCc1ccc(C(=O)NCCOCCC(=O)N[C@@H]2CC[C@@]3(O)[C@H]4Cc5ccc(O)c6c5[C@@]3(CCN4CC3CC3)[C@H]2O6)cc1 [Naltrexone-3-NB590] | 1.02 | 0.92 | 1.18 | 0.79 | – |
| CCCn1c(=O)c2[nH]c(-c3ccc(OCC(=O)NCCNC(=O)CCOCCNC(=O)c4ccc(CNC(=O)CCc5ccc6n5[B-](F)(F)[N+]5=C(c7ccc[nH]7)C=CC5=C6)cc4)cc3)nc2n(CCC)c1=O [XAC-3-NB590] | 0.92 | 0.78 | 0.98 | 0.86 | – |
| CC(C)N(CC[C@H](c1ccccc1)c1cc(CCNC(=O)c2ccc(CNC(=O)CCc3ccc4n3[B-](F)(F)[N+]3=C(c5ccc[nH]5)C=CC3=C4)cc2)ccc1O)C(C)C [Tolterodine-BZ-NB590] | 1.00 | 1.08 | 2.88 | 1.94 | – |
| COc1ccc2[nH]c(-c3ccc(CNC(=O)CCOCCOCCOCCOCCNC(=O)CCc4ccc5n4[B-](F)(F)[N+]4=C(c6ccc[nH]6)C=CC4=C5)cc3)c(CCNC(C)=O)c2n1 [AzomelatoninICO9-2-NB590] | – | – | – | – | NanoBRET Fold Response ([1]; 0.1μM tracer): 0.87; NanoBRET Fold Response ([1]; 1μM tracer): 1.18; NanoBRET Fold Response ([2]; 0.1μM tracer): 0.90; NanoBRET Fold Response ([2]; 1μM tracer): 0.97 |
| CN1CCN(C2=Nc3cc(Cl)ccc3N(CC(=O)NCCOCCOCCOCCOCCNC(=O)CCc3ccc4n3[B-](F)(F)[N+]3=C(c5ccc[nH]5)C=CC3=C4)c3ccccc32)CC1 [Clozapine-c-2-NB590] | – | – | – | – | NanoBRET Fold Response ([1]; CCR10, 0.1μM tracer): 1.00; NanoBRET Fold Response ([1]; CCR10, 1μM tracer): 0.91; NanoBRET Fold Response ([2]; CHRM5, 0.1μM tracer): 1.00; NanoBRET Fold Response ([2]; CHRM5, 1μM tracer): 0.86 |
| COc1ccccc1N1CCN(CCCCN2C(=O)c3ccc(CNC(=O)CCOCCNC(=O)c4ccc(CNC(=O)CCc5ccc6n5[B-](F)(F)[N+]5=C(c7ccc[nH]7)C=CC5=C6)cc4)cc3C2=O)CC1 [NAN-190-3-NB590] | 1.04 | 1.27 | 1.00 | 1.24 | – |
| Cc1nc2n(c(=O)c1CCN1CCC(c3noc4cc(F)ccc34)CC1)CCCC2OC(=O)NCCOCCOCCOCCOCCNC(=O)CCc1ccc2n1[B-](F)(F)[N+]1=C(c3ccc[nH]3)C=CC1=C2 (stereo not shown) [Risperidone-2-NB590] | – | 0.95 | 1.07 | 0.95 | – |
| O=C(CCOCCOCCOCCOCCNC(=O)CCc1ccc2n1[B-](F)(F)[N+]1=C(c3ccc[nH]3)C=CC1=C2)NCCCN1CCN(C2=Nc3ccccc3Oc3ccc(Cl)cc32)CC1 [Loxapine-a-2-NB590] | 1.04 | 1.04 | 0.99 | 0.89 | – |
